Where two headings read alike, the source gives them in different places.
Assays:
[1] = target: Recombinant human JAK1 catalytic domain (Homo sapiens (Human), UniProt P23458); experiment: JAK1 inhibition assay; type: biochemical
Procedure, shortened: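 Radiometric assay read by scintillation counting after phosphoric-acid washes. Percent inhibition calculated from cpm relative to vehicle and 10 μM staurosporine control. IC50 derived from compound dose-dilution series.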

[2] = target: Recombinant human JAK2 catalytic domain (Homo sapiens (Human), UniProt O60674); experiment: JAK2 inhibition assay; type: biochemical; conditions: semi-quantitative score
Recombinant human JAK2 catalytic domain, sequence (O60674 808-1132): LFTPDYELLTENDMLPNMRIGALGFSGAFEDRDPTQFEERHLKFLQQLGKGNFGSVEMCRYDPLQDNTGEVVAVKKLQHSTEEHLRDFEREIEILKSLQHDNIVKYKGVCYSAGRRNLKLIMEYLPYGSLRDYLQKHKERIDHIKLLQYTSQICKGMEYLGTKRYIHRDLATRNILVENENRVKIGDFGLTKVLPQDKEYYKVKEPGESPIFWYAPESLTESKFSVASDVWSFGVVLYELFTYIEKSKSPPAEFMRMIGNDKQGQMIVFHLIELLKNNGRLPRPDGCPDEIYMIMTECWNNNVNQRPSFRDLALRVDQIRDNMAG
Procedure, shortened: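 Radiometric kinase reactions ran for 90 min at 30 °C and were stopped with phosphoric acid, then washed and counted by scintillation. Percent inhibition was set relative to vehicle and to 10 μM staurosporine background. IC50 was derived from dose-dilution series.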

[3] = target: Recombinant human JAK3 catalytic domain (Homo sapiens (Human), UniProt P52333); experiment: JAK3 inhibition assay; type: biochemical; conditions: semi-quantitative score
Recombinant human JAK3 catalytic domain, sequence (P52333 781-1124): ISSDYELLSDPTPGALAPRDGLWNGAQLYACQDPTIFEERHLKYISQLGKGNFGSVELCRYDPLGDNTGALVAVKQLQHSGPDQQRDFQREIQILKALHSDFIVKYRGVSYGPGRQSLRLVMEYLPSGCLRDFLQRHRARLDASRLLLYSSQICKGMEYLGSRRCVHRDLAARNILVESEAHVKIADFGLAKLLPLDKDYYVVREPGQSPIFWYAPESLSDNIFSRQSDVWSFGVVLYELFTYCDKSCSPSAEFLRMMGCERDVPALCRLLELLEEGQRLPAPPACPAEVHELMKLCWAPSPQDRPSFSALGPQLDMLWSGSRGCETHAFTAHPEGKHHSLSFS
Experimental: Plates were washed 6 times with 300 μL per well of a 75 mM phosphoric acid solution and the bottom of the plates was sealed. 40 μL/well of Microscint-20 was added, the top of the plates was sealed and readout was performed using the Topcount (Perkin Elmer). Kinase activity was calculated by subtracting counts per minute (cpm) obtained in the presence of a positive control inhibitor (10 μM staurosporine) from cpm obtained in the presence of vehicle. The ability of a test compound to inhibit this activity was determined as: Percentage inhibition=((cpm determined for sample with test compound present−cpm determined for sample with positive control inhibitor) divided by (cpm determined in the presence of vehicle−cpm determined for sample with positive control inhibitor))*100%.
Dose dilution series were prepared for the compounds enabling the testing of dose-response effects in the JAK3 assay and the calculation of the IC50 for each compound.

[4] = test system: JAK-STAT signalling in HeLa cells; experiment: JAK-STAT signalling assay (OSM-triggered pSTAT1(2)-luciferase reporter in HeLa cells); type: cell-based; conditions: Homo sapiens; HeLa cells, OSM-triggered pSTAT1(2)-luciferase reporter; read-out: STAT signalling EC50
Procedure, shortened: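 HeLa cells transiently transfected with pSTAT1(2)-luciferase reporter plus LacZ internal control, incubated overnight at 37 °C, 10% CO2, then OSM-stimulated with compound. Luciferase read by Steadylite luminescence and normalised to β-galactosidase (ONPG); percent inhibition from controls, EC50 from dose-response.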

[5] = test system: MMP13 in SW1353 cells; experiment: OSM/IL-1β signaling assay (MMP13 levels in SW1353 cells); type: cell-based; conditions: Homo sapiens; SW1353 cells, OSM and IL-1β triggered, MMP13 levels 48 hours after triggering; read-out: MMP13 EC50;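 also: secreted MMP13 captured by antibody, activated with APMA and its activity read by fluorescence, inhibition scaled between vehicle-treated triggered wells (0%) and untriggered wells (100%)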
[6] = Microsomal stability, human liver microsomes; type: in vitro ADME; conditions: percentage of compound remaining after 60 minutes, 3 μM compound
Procedure, shortened: (§1)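 Compound was incubated with liver microsomes plus an NADP+/glucose-6-phosphate/G6PDH/MgCl2 regenerating system at 37°C for 1 h. Reactions were stopped 1:1 with MeOH or ACN and analysed by LCMS.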

[7] = Microsomal stability, rat liver microsomes; type: in vitro ADME; conditions: percentage of compound remaining after 60 minutes, 3 μM compound
Procedure, shortened: as §1

[8] = Caco2 permeability (bi-directional); type: in vitro ADME, human; conditions: human, pH 7.4; for efflux ratio at 1 h, 10 µM: Caco-2, ratio of PappB>A/PappA>B; for Papp A→B at 1 h, 10 µM: Caco-2, apical to basolateral, read-out: Papp (A2B)
Experimental: Bi-directional Caco-2 assays were performed as described below.
2×10^5 cells/well were seeded in plating medium consisting of DMEM+GlutaMAXI+1% NEAA+10% FBS (FetalClone II)+1% Pen/Strep. The medium was changed every 2-3 days.
50 μM Lucifer Yellow (Sigma) was added to the donor buffer in all wells to assess integrity of the cell layers by monitoring Lucifer Yellow permeation. As Lucifer Yellow (LY) cannot freely permeate lipophilic barriers, a high degree of LY transport indicates poor integrity of the cell layer.
After a 1 hour incubation at 37° C. while shaking at an orbital shaker at 150 rpm, 70 μL aliquots were taken from both apical (A) and basal (B) chambers and added to 100 μL1 50:50 acetonitrile:water solution containing analytical internal standard (0.5 μM carbamazepine) in a 96 well plate.
Concentrations of compound in the samples were measured by high performance liquid-chromatography/mass spectroscopy (LC-MS/MS).
The Efflux ratios, as an indication of active efflux from the apical cell surface, were calculated using the ratio of PappB>A/PappA>B.
The following assay acceptance criteria were used:
Lucifer yellow permeability: ≤100 nm/s

Recombinant human JAK1 catalytic domain, sequence (P23458 850-1154): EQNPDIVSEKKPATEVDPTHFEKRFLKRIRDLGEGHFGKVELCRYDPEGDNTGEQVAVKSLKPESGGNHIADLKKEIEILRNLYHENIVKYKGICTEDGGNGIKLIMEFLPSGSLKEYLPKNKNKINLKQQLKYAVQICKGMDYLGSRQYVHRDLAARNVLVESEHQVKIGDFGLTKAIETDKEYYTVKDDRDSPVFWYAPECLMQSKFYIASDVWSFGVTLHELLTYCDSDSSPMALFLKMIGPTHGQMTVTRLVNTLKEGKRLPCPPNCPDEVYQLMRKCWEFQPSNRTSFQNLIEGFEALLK

SMILES	IC50 ([1]; semi-quantitative score) [nM]	IC50 [2] [nM]	IC50 [3] [nM]	EC50 [4] [nM]	EC50 [5] [nM]	Microsomal Stability Human (%) [6]	Microsomal Stability Rat (%) [7]	IC50 [1] [nM]	efflux ratio at 1 h, 10 µM [8]	Papp A→B at 1 h, 10 µM [8] [×10⁻⁶ cm/s]
O=C(Nc1nc2cccc(-c3ccc(N4CCCCC4)nc3)n2n1)C1CC1 [Compound 3, N-(5-(6-(piperidin-1-yl)pyridin-3-yl)-[1,2,4]triazolo[1,5-a]pyridin-2-yl)cyclopropanecarboxamide]	101 to 500	> 1000	> 1000	–	–	–	–	–	–	–
CCCc1ccc(S(=O)(=O)Nc2ccc(-c3cccc4nc(NC(=O)C5CC5)nn34)cc2)cc1 [Compound 85, N-(5-(4-(4-propylphenylsulfonamido)phenyl)-[1,2,4]triazolo[1,5-a]pyridin-2-yl)cyclopropanecarboxamide]	< 100	101 to 500	> 1000	> 1000	> 1000	* (* 0-25)	* (* 0-25)	–	–	–
O=C(Nc1nc2cccc(-c3ccc(OCCn4cccn4)cc3)n2n1)C1CC1 [Compound 98]	< 100	101 to 500	> 1000	> 1000	> 1000	** (** 26-50)	** (** 26-50)	–	–	–
NC(=O)c1ccc(COc2ccc(-c3cccc4nc(NC(=O)C5CC5)nn34)cc2)cn1 [Compound 192, 5-{4-[2-(Cyclopropanecarbonyl-amino)-[1,2,4]triazolo[1,5-a]pyridin-5-yl]-phenoxymethyl}-pyridine-2-carboxylic Acid Amide]	–	–	101 to 500	101 to 500	501 to 1000	**** (**** 76-100)	**** (**** 76-100)	< 100	2	–
CC(Oc1ccc(-c2cccc3nc(NC(=O)C4CC4)nn23)cc1)c1ccccn1 (stereo not shown) [Compound 189, N-(5-(4-(1-(pyridin-2-yl)ethoxy)phenyl)-[1,2,4]triazolo[1,5-a]pyridin-2-yl)cyclopropanecarboxamide]	< 100	–	501 to 1000	101 to 500	> 1000	** (** 26-50)	** (** 26-50)	–	–	–
CCCCN(CCCN1CCOCC1)C(=O)c1ccc(-c2cccc3nc(NC(=O)C4CC4)nn23)cc1 [Compound 90, N-butyl-4-(2-(cyclopropanecarboxamido)-[1,2,4]triazolo[1,5-a]pyridin-5-yl)-N-(3-morpholinopropyl)benzamide]	< 100	501 to 1000	> 1000	> 1000	> 1000	** (** 26-50)	** (** 26-50)	–	–	–
O=C(c1ccccc1)c1ccc(-c2cccc3nc(NC(=O)C4CC4)nn23)cc1 [Compound 10, N-(5-(4-benzoylphenyl)-[1,2,4]triazolo[1,5-a]pyridin-2-yl)cyclopropanecarboxamide]	< 100	101 to 500	> 1000	> 1000	> 1000	**** (**** 76-100)	** (** 26-50)	–	–	–
CN1CCN(C(=O)c2ccc(-c3cccc4nc(NC(=O)C5CC5)nn34)cc2)CC1 [Compound 71, N-(5-(4-(4-methylpiperazine-1-carbonyl)phenyl)-[1,2,4]triazolo[1,5-a]pyridin-2-yl)cyclopropanecarboxamide]	< 100	–	> 1000	> 1000	> 1000	* (* 0-25)	**** (**** 76-100)	–	–	–
CC(=O)Nc1ccc(COc2ccc(-c3cccc4nc(NC(=O)C5CC5)nn34)cc2)cc1 [Compound 92, N-(5-(4-(4-acetamidobenzyloxy)phenyl)-[1,2,4]triazolo[1,5-a]pyridin-2-yl)cyclopropanecarboxamide]	< 100	101 to 500	501 to 1000	–	> 1000	** (** 26-50)	* (* 0-25)	–	–	–
N#Cc1ccc(COC2CN(C(=O)c3ccc(-c4cccc5nc(NC(=O)C6CC6)nn45)cc3)C2)cc1 [Compound 325, Cyclopropanecarboxylic acid (5-{4-[3-(4-cyano-benzyloxy)-azetidine-1-carbonyl]-phenyl}-[1,2,4]triazolo[1,5-a]pyridin-2-yl)-amide]	< 100	101 to 500	–	501 to 1000	501 to 1000	*** (*** 51-75)	*** (*** 51-75)	–	–	3.2
O=C(Nc1nc2cccc(-c3ccc(NS(=O)(=O)Cc4ccccc4)cc3)n2n1)C1CC1 [Compound 77, N-(5-(4-(phenylmethylsulfonamido)phenyl)-[1,2,4]triazolo[1,5-a]pyridin-2-yl)cyclopropanecarboxamide]	< 100	101 to 500	> 1000	> 1000	1 to 500	** (** 26-50)	** (** 26-50)	–	–	–
O=C(Nc1nc2cccc(-c3ccc(NS(=O)(=O)CCc4cccc(F)c4)cc3)n2n1)C1CC1 [Compound 88, N-(5-(4-(2-(3-fluorophenyl)ethylsulfonamido)phenyl)-[1,2,4]triazolo[l,5-a]pyridin-2-yl)cyclopropanecarboxamide]	< 100	101 to 500	> 1000	> 1000	> 1000	* (* 0-25)	* (* 0-25)	–	–	–
O=C(NCCCc1ccccc1)c1ccc(-c2cccc3nc(NC(=O)C4CC4)nn23)cc1 [Compound 114, 4-(2-(cyclopropanecarboxamido)-[1,2,4]triazolo[1,5-a]pyridin-5-yl)-N-(3-phenylpropyl)benzamide]	< 100	101 to 500	> 1000	> 1000	501 to 1000	* (* 0-25)	* (* 0-25)	–	–	–
CN(C(=O)c1ccc(-c2cccc3nc(NC(=O)C4CC4)nn23)cc1)c1ccccc1 [Compound 30, 4-(2-(cyclopropanecarboxamido)-[1,2.4]triazolo[1,5-a]pyridin-5-yl)-N-methyl-N-phenylbenzamide]	< 100	< 100	> 1000	501 to 1000	> 1000	* (* 0-25)	* (* 0-25)	–	–	–
O=C(Nc1nc2cccc(-c3ccc(C(=O)N4CCC(O)CC4)cc3)n2n1)C1CC1 [Compound 209, Cyclopropanecarboxylic acid {5-[4-(4-hydroxy-piperidine-1-carbonyl)-phenyl]-[1,2,4]triazolo[1,5-a]pyridin-2-yl}-amide]	< 100	101 to 500	–	> 1000	> 1000	**** (**** 76-100)	**** (**** 76-100)	–	36	0.5
O=C(Nc1nc2cccc(-c3ccc(C(=O)N4CCCC4)cc3)n2n1)C1CC1 [Compound 19, N-(5-(4-(pyrrolidine-1-carbonyl)phenyl)-[1,2,4]triazolo[1,5-a]pyridin-2-yl)cyclopropanecarboxamide]	< 100	101 to 500	> 1000	> 1000	> 1000	**** (**** 76-100)	*** (*** 51-75)	–	–	–

— patent US10206907B2, “Compounds useful for the treatment of degenerative and inflammatory diseases” (GALAPAGOS NV, priority 2008, dated 2019)
